How the values were obtained:
[1] = tested on: carrageenan-induced inflammation; experiment: Carrageenan-induced paw inflammation in mice (plethysmometer); assay type: in vivo; conditions: intravenous injection before carrageenan (64 mg/kg stated for PP35-405); after 3.5 hrs
Experimental: Growth factors are implicated to participate in inflammatory conditions. Carrageenan (0.1 ml, 1%) was injected intraplantarly in one hind paw of two groups of mice, five animals in each group.
An intravenous injection of 64 mg/kg of 1,2-O-ethylene-β-D-fructopyranoside-2,3,4-trisphosphate (PP35-405) was administered immediately before the injection of carrageenan.
Injection of carrageenan induces inflammation which is measured by comparing the increase in paw volume using a plethysmometer.
In a procedure similar to the one described in Example 8, an intravenous injection of 1,5-dideoxy-1,5-imino-N-(2-phenylethyl)arabinitol-2,3,4-trisphosphate (PP35-508) was administered.
In a procedure similar to the one described in Example 8, an intravenous injection of myo-inositol-1,2,6-tris(carboxymethyl phosphonate) (PP40-402) was administered. 3.5 hrs after the injection of carrageenan the inflammation was retarded with 32% in the group recieving PP40-402. Thus the administration of PP40-402 markedly reduces the inflammatory condition.

[2] = tested on: phosphatidyl inositol 3′ kinase (PI 3′-kinase); experiment: Interstitial fluid pressure (PIF) in rat hind paw, wortmannin-induced decrease; assay type: in vivo, Wistar Möller rats; design: PIF (interstitial fluid pressure): dose or concentration left out as unconfirmed; conditions: wortmannin in DMSO/saline, 5 μl subdermally; after 30 minutes; vehicle ca −0.7 mm Hg
From the text: The enzyme phosphatidyl inositol 3′ kinase (PI 3′-kinase) is implicated in a number of growth factor induced responses such as mitogenesis, chemotaxis, membrane ruffling and the balance between osteoclasts and osteoblasts. Furthermore it is known that inactivation of PI 3′ kinase leads to increased oedema formation expressed as a decrease of interstitial fluid pressure (PIF) in animal models.
An inhibitor of PI 3′ kinase such as wortmannin renders a decrease of PIF as a consequence of inactivation of PI 3′ kinase.
The measurements were performed on female Wistar Möller rats (200-250 g), anesthetized with pentobarbital (50 mg/kg i.p.).
PIF was measured on the dorsal side of the hind paw with sharpened glass capillarier (tip diameter 2-7 μm) filled with 0.5 M NaCl coloured with Evans Blue and connected to a serve-controlled counter pressure system. The punctures were performed through intact skin using a stereomicroscope. The pipette-tip was located 0.3-0.5 mm below the skin. Pressure measurements were made 2.5-3.0 mm from the center of injection. The normal transcapillary pressure gradient is about 0.5 mm Hg.
Three sets of experiments were performed with six animals in each set.
In the first set of experiment the vehicle for wortmannin, DMSO diluted in saline, 5 μl, was injected subdermally using a chromatography syringe. […]

[3] = Binding constants to the polyamine spermine; assay type: physicochemical; conditions: 1:1:5 complex; 0.1 M N-tetramethylbromide at 25° C.
Experimental: The interaction between a polyamine, spermine and different triphosphorylated compounds were investigated in order to determin the binding constants. Spermine is a basic polyamine comprising domains of similar basicity to basic domains in growth factors. Spermine and the different phosphorylated compounds forms different complexes and the 1:1:5 complex was used as the complex for determination of binding constants.
The following binding constants, log Ks was determined in 0.1 M N-tetramethylbromide at 25° C.: […]

[4] = tested on: HIV (viral isolates from HIV-infected patients) in peripheral blood mononuclear cells (PBMC); experiment: HIV infection of PBMC, HIV-antigen production by ELISA; assay type: cell-based; conditions: normalized HIV-antigen production at day 7, control 100
Experimental: Growth factor activity is considered to be involved in the process of viral infections. Viral isolates from HIV-infected patients were used in order to induce an infection by adding peripheral blood mononuclear cells (PBMC) to a medium containing different concentrations of the sodium salt of D-3,4,5-tri-O-hexanoyl-myo-inositol-1,2,6-trisphosphate (PP10-202). 25 CCID50 (50% cell culture infections dose) of PBMC from HIV-infected patients were incubated with four different concentrations of PP10-202; 0.0625 mg/ml, 0.125 mg/ml, 0.250 mg/ml and 0.500 mg/ml. Another preparation, without any PP10-202 served as a control. The growth medium consisted of 10% fetal calf serum, […] glutamine, 100 IU/ml penicillin, 100 IU/ml streptomycin and 20 μg/ml gentamicin. The concentration of cells were 2×10^5 per ml. All preparations were incubated for 1 hour at 37° C.
PBMCs from healthy donors were then added to the preparation. Before addition, these cells were stimulated for three days with phytohemagglutinin (PHA). 0.5×10^6 PHA-stimulated PBMCs were added to each preparation, followed by incubation for 3 hours at 37° C. After extensive washing the cells were resuspended in growth medium supplemented with 10 IU/ml of interleukin-2 and seeded in quadruplicates of 100.000 cells in a 96-well microtite plate before further cultivation for 7 days. The HIV-antigen production was assayed at the seventh day using an ELISA-technique.

[5] = tested on: acetic acid-induced writhes; experiment: Acetic acid writhing test (analgetic effect); assay type: in vivo, mice; conditions: 64 mg/kg intravenous, sodium salt; 10-minute observation
Experimental: Two groups of mice, 10 animals per group, were used in order to investigate the analgetic effect of methyl α-D-rhamnopyranoside-2,3,4-trisphosphate (PP 35-406). The control group was given an intravenous dose of saline while the other group was given a dose of 64 mg/kg of the sodium salt of PP 35-406. Three minutes after intravenous dosing, each […] received an intraperitoneal injection of 1 ml of a 1% (w/w) solution of acetic acid. Directly after that procedure each animal was placed into individual observation chambers and the numbers of writhes elicited during the subsequent 10-minute period were recorded. After the observation period the animals were killed by cervical dislocation. The number of writhes during the observation period is an expression of the pain experienced by the animal. Percent protection was calculated as follows: […]((number of writhes in control group—number of writhes in treated animals)/(number of writhes in control group).

Row | Compound | inflammation retarded (increase in paw volume) [1] [%] | log Ks [3] | also measured
1 | O=P(O)(O)OC1CN(CCc2ccccc2)CC(OP(=O)(O)O)C1OP(=O)(O)O (stereo not drawn) [PP35-508, 1,5-dideoxy-1,5-imino-N-(2-phenylethyl)arabinitol-2,3,4-trisphosphate] | 27 | – | –
2 | 1,2-O-ethylene-β-D-fructopyranoside-2,3,4-trisphosphate [PP35-405] | 51 | – | –
3 | COC[C@H]1OC(=O)c2coc3c2[C@@]1(C)C1=C(C3=O)[C@@H]2CCC(=O)[C@@]2(C)C[C@H]1OC(C)=O [wortmannin, reference compound] | – | – | PIF (interstitial fluid pressure) [2]: −2.5 mm Hg
4 | Methyl-6-O-butyl-α-D-mannopyranoside 2,3,4-trisphosphate [PP35-402] | – | 5.36 | –
5 | O=C(O)CP(=O)(O)OC1C(O)C(O)C(O)C(OP(=O)(O)CC(=O)O)C1OP(=O)(O)CC(=O)O (stereo not drawn) [PP40-402, myo-inositol-1,2,6-tris(carboxymethyl phosphonate)] | 32 | – | –
6 | O=C(Nc1ccccc1)O[C@@H]1[C@@H](OC(=O)Nc2ccccc2)[C@@H](OP(=O)(O)O)[C@@H](OP(=O)(O)O)[C@H](OP(=O)(O)O)[C@H]1OC(=O)Nc1ccccc1 [PP11-201, D-3,4,5-tri-O-phenylcarbamoyl-myo-inositol-1,2,6-trisphosphate] | – | 4.71 | –
7 | CCCCCC(=O)O[C@@H]1[C@@H](OC(=O)CCCCC)[C@@H](OP(=O)(O)O)[C@@H](OP(=O)(O)O)[C@H](OP(=O)(O)O)[C@H]1OC(=O)CCCCC [PP10-202, D-3,4,5-tri-O-hexanoyl-myo-inositol-1,2,6-trisphosphate] | – | 4.20 | HIV-infection ([4]; 0.0625 mg/ml): 75%; HIV-infection ([4]; 0.125 mg/ml): 41%; HIV-infection ([4]; 0.250 mg/ml): 33%; HIV-infection ([4]; 0.500 mg/ml): 20%
8 | CO[C@H]1O[C@H](C)[C@@H](OP(=O)(O)O)[C@H](OP(=O)(O)O)[C@@H]1OP(=O)(O)O [PP 35-406, methyl α-D-rhamnopyranoside-2,3,4-trisphosphate] | – | – | Percent protection (number of writhes) [5]: 19%

Reference: patent publication US6632797B2, “Method of treating angiogenesis” (priority 1996, dated 2003)
